Broadly, the pEC50 is −log10 of the EC50, conventionally taken in molar units.

In patent US20090275574A1, “NOVEL COMPOUNDS-300” (ASTRAZENECA AB, priority 2008, published 2009) one finds EC50 data, which are given here for 3 compounds.

Test [1] concerns the target T1, hM1 (human Muscarinic receptor subtype 1) (Homo sapiens, UniProt P11229).
T1 construct: expressed in transfected cells; host or cells: CHO cells (ATCC)
T1 sequence (P11229 1-460): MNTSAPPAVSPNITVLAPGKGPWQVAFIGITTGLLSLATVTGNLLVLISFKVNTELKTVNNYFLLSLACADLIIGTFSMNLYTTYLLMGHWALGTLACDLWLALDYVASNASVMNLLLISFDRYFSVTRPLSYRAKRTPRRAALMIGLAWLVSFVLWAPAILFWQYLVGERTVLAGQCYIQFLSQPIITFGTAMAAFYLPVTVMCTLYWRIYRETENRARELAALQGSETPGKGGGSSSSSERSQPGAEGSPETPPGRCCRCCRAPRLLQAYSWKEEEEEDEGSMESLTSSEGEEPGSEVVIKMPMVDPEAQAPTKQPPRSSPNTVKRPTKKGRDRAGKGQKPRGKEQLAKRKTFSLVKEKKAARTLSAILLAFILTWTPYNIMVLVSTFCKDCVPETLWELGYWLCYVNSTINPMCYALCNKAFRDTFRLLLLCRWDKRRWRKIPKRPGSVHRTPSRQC
In words: Human M1 calcium mobilization FLIPR assay. The class given is cell-based. The following applies: hM1 expressed in CHO cells, intracellular Ca2+ release (FLIPR). The gist of the method:
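CHO cells expressing human M1, M3 or M5 receptors, dye-loaded 60 min at 37 °C; Ca2+ release read by FLIPR (510-570 nm). M3/M5 inhibition measured against 2 nM acetylcholine added after compound; M1 agonism from maximal RFU, others max minus min. pEC50/pIC50 from sigmoidal fits, 10-point three-fold dilutions.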

Another test deals with T2, cloned human M2 receptor (Homo sapiens, UniProt P08172).
T2 construct: purchased Perkin-Elmer RBHM2M; host or cells: Chinese hamster ovary cells (CHO), membranes
T2 sequence (P08172 1-466): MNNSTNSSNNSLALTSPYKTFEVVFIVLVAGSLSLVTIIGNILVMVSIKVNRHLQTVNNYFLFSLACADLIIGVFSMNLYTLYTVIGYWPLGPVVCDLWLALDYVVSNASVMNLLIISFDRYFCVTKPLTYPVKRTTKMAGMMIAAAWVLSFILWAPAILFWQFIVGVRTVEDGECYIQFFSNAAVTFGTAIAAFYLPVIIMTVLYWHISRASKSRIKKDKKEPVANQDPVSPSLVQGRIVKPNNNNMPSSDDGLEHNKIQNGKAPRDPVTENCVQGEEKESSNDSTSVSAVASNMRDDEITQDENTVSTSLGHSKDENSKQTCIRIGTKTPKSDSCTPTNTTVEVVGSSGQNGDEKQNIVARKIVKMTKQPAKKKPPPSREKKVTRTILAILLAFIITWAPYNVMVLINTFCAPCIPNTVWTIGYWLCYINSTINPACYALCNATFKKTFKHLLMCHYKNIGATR
In words: hM2 receptor GTPγS binding. It is filed as biochemical. The conditions noted are these: CHO membranes expressing hM2, [35S]GTPγS binding. A general note: GTPγS resists hydrolysis and so accumulates on activated G proteins.

pEC50: −log10 of the molar value.

As to `O=C1NC[C@H]2CCCC[C@@H]2N1C1CCN(C2CCC(COCC(F)F)CC2)CC1` (single isomer, unassigned) [Example 51], the negative logarithm of the EC50 (pEC50) in test [1] was 7.64; at cloned human M2 receptor, 5.52.
Regarding `CCOC[C@H]1CC[C@@H](N2CCC(N3C(=O)CO[C@H]4CCCC[C@@H]43)CC2)C1` [Example 42, (4aS,8aS)-4-(1-((1R,3S)-3-(ethoxymethyl)cyclopentyl)piperidin-4-yl)hexahydro-2H-benzo[b][1,4]oxazin-3(4H)-one], the pEC50 is 8.38 in test [1] and 5.80 at cloned human M2 receptor.
For `CCOC[C@@H]1CC[C@H](N2CCC(N3C(=O)CO[C@H]4CCCC[C@@H]43)CC2)C1` [Example 43, (4aS,8aS)-4-(1-((1S,3R)-3-(ethoxymethyl)cyclopentyl)piperidin-4-yl)hexahydro-2H-benzo[b][1,4]oxazin-3(4H)-one], the pEC50 in test [1] was 7.92; on cloned human M2 receptor, below 5.41.
